Entries after “also recorded” stand apart in the source; their conditions may differ. Like-named read-outs stand apart in the source and are kept apart here.
Experiments:
cathepsin-L = cathepsin-L (Homo sapiens, UniProt P07711); assay: IC50 assay with cathepsin-L; format: biochemical; conditions: mean±s.d.
Experimental: Cathepsin-L – 100 nM enzyme was pre-incubated with inhibitor in assay buffer (100 mM Sodium Acetate pH 5.5, 1 mM EDTA) for 10 min at 37 °C. The reaction was initiated on addition of 25 μM substrate (D-Val-Leu-Lys-AMC (Bachem).
(§1) To determine the IC50 values of the compounds towards δ-secretase, cathepsin-S, cathepsin-L, caspase-3 and caspase-8, purified recombinant enzyme was incubated in appropriate assay buffers in the presence of increasing concentrations of inhibitors. The formation of fluorescent product was monitored in duplicate reactions and the data were fit to appropriate equations to calculate the IC50 values.

primary neurons = assay: LDH release of primary neurons after OGD; format: cell-based, mouse
[1] = NMR stability and thiol reactivity (cysteamine, β-mercaptoethanol); format: physicochemical
Caco-2 monolayer = Caco-2 monolayer permeability screen
Experimental: (§2) Supplementary Table 3: Caco-2 permeability and BBB-PAMPA permeability
(§3) For CaCo-2 permeability assay, cells were incubated with 10 µM of these reagents in
(§4) buffers for 2 h, and the receiver side buffer is removed for analysis by LC/MS/MS. Efflux […]
(§5) LLOQ: Lower Limit of Quantification; Papp: apparent permeability.

[2] = Caco-2 monolayer permeability screen; conditions: human, Caco-2
Experimental: as §2, §3, §4, §5

caspase-3 = molecular target: T1, caspase-3 (Homo sapiens, UniProt P42574); assay: IC50 assay with recombinant caspase-3; format: biochemical; conditions: mean±s.d.
T1 construct: purchased Millipore (Billerica, MA)
T1 sequence (P42574 29-175 limits assumed): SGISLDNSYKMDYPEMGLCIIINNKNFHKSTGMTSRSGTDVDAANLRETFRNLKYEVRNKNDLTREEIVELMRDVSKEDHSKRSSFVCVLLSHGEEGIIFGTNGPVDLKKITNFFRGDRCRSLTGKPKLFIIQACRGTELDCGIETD
T1 sequence (P42574 176-277 limits assumed): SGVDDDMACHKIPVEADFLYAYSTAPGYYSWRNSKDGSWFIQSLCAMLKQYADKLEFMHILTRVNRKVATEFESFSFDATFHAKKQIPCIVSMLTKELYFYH
Experimental: Caspase-3 and 8 – The enzyme was pre-incubated with inhibitor in assay buffer (100 mM HEPES pH 7.4, 0.1% CHAPS, 10% Sucrose) for 10 min at 37 °C.
as §1

CYP2C9 = CYP2C9 (Homo sapiens, UniProt P11712); assay: CYP inhibition screening in microsomes; conditions: pH 7.4
CYP2C9, sequence (P11712 whole entry): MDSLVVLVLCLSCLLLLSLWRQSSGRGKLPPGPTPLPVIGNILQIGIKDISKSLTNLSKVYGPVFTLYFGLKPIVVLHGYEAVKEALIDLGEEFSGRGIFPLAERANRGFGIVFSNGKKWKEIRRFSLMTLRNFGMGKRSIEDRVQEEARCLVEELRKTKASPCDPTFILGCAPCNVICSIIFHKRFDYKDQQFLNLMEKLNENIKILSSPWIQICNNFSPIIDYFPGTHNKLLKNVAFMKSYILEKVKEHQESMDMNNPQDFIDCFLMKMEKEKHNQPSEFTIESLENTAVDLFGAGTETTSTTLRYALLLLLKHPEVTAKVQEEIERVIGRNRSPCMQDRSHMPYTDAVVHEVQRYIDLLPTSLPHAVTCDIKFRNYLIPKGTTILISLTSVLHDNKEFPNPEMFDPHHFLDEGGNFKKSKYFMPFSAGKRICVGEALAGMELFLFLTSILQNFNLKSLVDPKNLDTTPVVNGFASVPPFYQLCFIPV

δ-secretase [3] = molecular target: T2, δ-secretase (Homo sapiens, UniProt Q99538); assay: IC50 assay with purified recombinant δ-secretase (AEP), substrate Cbz-Ala-Ala-Asn-AMC; format: biochemical
T2 construct: tested with purified active δ-secretase, IC50 values for the top 8 candidates were calculated; purchased Sino Biological (Beijing, China)
T2 sequence (Q99538 18-323 limits assumed): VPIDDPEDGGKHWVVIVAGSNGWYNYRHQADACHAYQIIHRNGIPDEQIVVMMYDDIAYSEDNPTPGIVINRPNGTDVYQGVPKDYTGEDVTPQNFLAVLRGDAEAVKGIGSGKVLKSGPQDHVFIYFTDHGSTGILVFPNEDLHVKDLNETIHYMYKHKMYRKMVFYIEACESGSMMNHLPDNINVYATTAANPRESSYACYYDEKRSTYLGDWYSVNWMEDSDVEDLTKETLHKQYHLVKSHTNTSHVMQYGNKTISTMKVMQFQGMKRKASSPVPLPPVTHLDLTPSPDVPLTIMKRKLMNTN
Experimental: δ-secretase – 50 nM enzyme was pre-incubated with inhibitor in assay buffer (50 mM Sodium Citrate pH 5.5, 0.1% CHAPS, 60 mM Na2HPO4, 1 mM EDTA) for 10 min at 37 °C. The reaction was initiated on addition of 10 μM Cbz-Ala-Ala-Asn-AMC (Bachem).
as §1

δ-secretase [4] = molecular target: T2, δ-secretase; assay: DTT and L-cysteine reversibility of δ-secretase inhibition; format: biochemical; conditions: 10 mM DTT or L-cysteine, inhibitor at its IC50
[5] = purified recombinant enzyme, mean±s.d., read-out: IC50 AEP (δ-secretase)

cathepsin-L, sequence (P07711 114-333, species assumed): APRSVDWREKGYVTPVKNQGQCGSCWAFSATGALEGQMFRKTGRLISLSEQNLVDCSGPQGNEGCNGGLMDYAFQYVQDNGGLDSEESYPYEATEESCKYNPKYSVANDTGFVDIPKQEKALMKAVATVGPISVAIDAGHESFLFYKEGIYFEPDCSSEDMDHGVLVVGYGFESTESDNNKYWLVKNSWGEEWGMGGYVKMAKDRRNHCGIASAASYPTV

| IC50 (cathepsin-L) | Papp A→B at 2 h, 10 µM [2] | Papp B→A at 2 h, 10 µM [2] | IC50 (caspase-3) | inhibition at 10 min, 3 µM (CYP2C9) | inhibition at 10 min, 10 µM (CYP2C9) | IC50 (δ-secretase [3]; [5]) | efflux ratio at 2 h, 10 µM [2] | IC50 (δ-secretase [3]; purified active δ-secretase, read-out: IC50 / potency toward δ-secretase) | SMILES | OGD-induced cell toxicity in neurons from 5XFAD or tau P301S mice (primary neurons; cultured neurons from 5XFAD mice or tau P301S mice) | neuronal injury induced by OGD in δ-secretase knockout neurons (primary neurons; neurons from δ-secretase knockout mice) | neuronal injury (LDH in medium) induced by OGD (primary neurons; wild-type neurons) | reaction with β-mercaptoethanol [1] | stability by NMR spectroscopy ([1]; presence or absence of cysteamine) | Caco-2 permeability in words (Caco-2 monolayer) | recovery of δ-secretase activity on addition of reducing agents (δ-secretase [4]) |
| --- | --- | --- | --- | --- | --- | --- | --- | --- | --- | --- | --- | --- | --- | --- | --- | --- |
| > 200000 nM | 1.4 ×10⁻⁶ cm/s | 3.7 ×10⁻⁶ cm/s | > 200000 nM | 4.3% | -2.7% | 280 ± 20 nM | 2.7 | – | Cc1cccc(NCc2ccc(O)c3ncccc23)c1C [compound 12] | – | – | – | – | – | – | – |
| 1300 ± 390 nM | 19.3 ×10⁻⁶ cm/s | 17.4 ×10⁻⁶ cm/s | > 100000 nM | 47.8% | 69.2% | 260 ± 30 nM | 0.9 | – | COc1ccc(N2CCN(C(c3ccc(N(C)C)cc3)c3nnnn3C(C)(C)C)CC2)cc1 (stereo not drawn) [compound 31] | – | – | – | – | – | highly permeable | – |
| > 200000 nM | 1.1 ×10⁻⁶ cm/s | 20.3 ×10⁻⁶ cm/s | 29700 ± 4680 nM | 15.6% | 17.1% | 370 ± 60 nM | 18.2 | ~370 nM | Cn1c(=O)[nH]c(=O)c2c1nc(S)n2CC(O)COc1ccc(Cl)cc1 (stereo not drawn) [compound 38] | – | – | – | – | – | – | regained a substantial amount of activity |

| SMILES | IC50 (cathepsin-L) | Papp A→B at 2 h, 10 µM [2] | Papp B→A at 2 h, 10 µM [2] | IC50 (caspase-3) | inhibition at 10 min, 3 µM (CYP2C9) | inhibition at 10 min, 10 µM (CYP2C9) | IC50 (δ-secretase [3]; [5]) | efflux ratio at 2 h, 10 µM [2] | IC50 (δ-secretase [3]; purified active δ-secretase, read-out: IC50 / potency toward δ-secretase) | OGD-induced cell toxicity in neurons from 5XFAD or tau P301S mice (primary neurons; cultured neurons from 5XFAD mice or tau P301S mice) | neuronal injury induced by OGD in δ-secretase knockout neurons (primary neurons; neurons from δ-secretase knockout mice) | neuronal injury (LDH in medium) induced by OGD (primary neurons; wild-type neurons) | reaction with β-mercaptoethanol [1] | stability by NMR spectroscopy ([1]; presence or absence of cysteamine) | Caco-2 permeability in words (Caco-2 monolayer) | recovery of δ-secretase activity on addition of reducing agents (δ-secretase [4]) |
| --- | --- | --- | --- | --- | --- | --- | --- | --- | --- | --- | --- | --- | --- | --- | --- | --- |
| Nc1ccc(N2CCOCC2)c2nonc12 [compound 11, 7-(morpholin-4-yl)-2,1,3-benzoxadiazol-4-amine] | > 200000 nM | 35 ×10⁻⁶ cm/s | 7 ×10⁻⁶ cm/s | 31900 ± 1940 nM | 4.3% | 5.6% | – | – | – | attenuated OGD-induced cell toxicity | did not further protect | attenuated neuronal injury | did not react; also recorded: unreactive | stable | highly permeable | – |
